Assay results from patent publication US20140343000A1 (priority 2011, published 2014).

Each compound was assayed on recombinant NL4-3 virus (Renilla luciferase in nef, Gag P373S; NLRluc) in MT-2 cells (assay: whole plant or invertebrate). Conditions: Renilla, NL43, luciferase activity in cells infected for 4-5 days with NLRluc recombinants, serial dilutions of inhibitor; class symbols (key in Table 1); read-out: EC50.
Assay type: cell-based, HIV
Procedure: MT-2 cells and 293T cells were obtained from the NIH AIDS Research and Reference Reagent Program. MT-2 cells were propagated in RPMI 1640 media supplemented with 10% heat inactivated fetal bovine serum, […]. The 293T cells were propagated in DMEM media supplemented with 10% heat inactivated fetal bovine serum (FBS), 100 units/ml penicillin G and 100 μg/ml streptomycin. The proviral DNA clone of NL4-3 was obtained from the NIH AIDS Research and Reference Reagent Program. A recombinant NL4-3 virus, in which a section of the nef gene from NL4-3 was replaced with the Renilla luciferase gene, was used as a reference virus. In addition, residue Gag P373 was converted to P373S. Briefly, the recombinant virus was prepared by transfection of the altered proviral clone of NL4-3. Transfections were performed in 293T cells using LipofectAMINE PLUS from Invitrogen (Carlsbad, Calif.), according to manufacturer's instruction. The virus was titered in MT-2 cells using luciferase enzyme activity as a marker. Luciferase was quantitated using the Dual Luciferase kit from Promega (Madison, Wis.), with modifications to the manufacturer's protocol. The diluted Passive Lysis solution was pre-mixed with the re-suspended Luciferase Assay Reagent and the re-suspended Stop & Glo Substrate (2:1:1 ratio). Fifty (50) μL of the mixture was added to each aspirated well on assay plates and luciferase activity was measured immediately on a Wallac TriLux (Perkin-Elmer). Antiviral activities of inhibitors toward the recombinant virus were quantified by measuring luciferase activity in cells infected for 4-5 days with NLRluc recombinants in the presence serial dilutions of the inhibitor. Table 1 is the key for the data in Table 2.

With `C=C(C)[C@@H]1CC[C@]2(NC(=O)NCCN3CCS(=O)(=O)CC3)CC[C@]3(C)[C@H](CC[C@@H]4[C@@]5(C)CC=C(c6ccc(C(=O)O)cc6)C(C)(C)[C@@H]5CC[C@]43C)[C@@H]12` [Example 21, 4-((1R,3aS,5aR,5bR,7aR,11aS,11bR,13aR,13bR)-3a-(((2-(1,1-dioxido-4-thiomorpholinyl)ethyl)carbamoyl)amino)-1-isopropenyl-5a,5b,8,8,11a-pentamethyl-2,3,3a,4,5,5a,5b,6,7,7a,8,11,11a,11b,12,13,13a,13b-octadecahydro-1H-cyclopenta[a]chrysen-9-yl)benzoic acid] as the compound, how does the EC50 read?
Its EC50 is less than 100 nM.

`C=C(C)[C@@H]1CC[C@]2(NC(=O)NCCCN3CCS(=O)(=O)CC3)CC[C@]3(C)[C@H](CC[C@@H]4[C@@]5(C)CC=C(c6ccc(C(=O)O)cc6)C(C)(C)[C@@H]5CC[C@]43C)[C@@H]12` [Example 22, 4-((1R,3aS,5aR,5bR,7aR,11aS,11bR,13aR,13bR)-3a-(((3-(1,1-dioxido-4-thiomorpholinyl)propyl)carbamoyl)amino)-1-isopropenyl-5a,5b,8,8,11a-pentamethyl-2,3,3a,4,5,5a,5b,6,7,7a,8,11,11a,11b,12,13,13a,13b-octadecahydro-1H-cyclopenta[a]chrysen-9-yl)benzoic acid] was tested. Which EC50 did it give?
The EC50 was less than 100 nM.

`C=C(C)[C@@H]1CC[C@]2(NC(=O)NCCN(C)CCO)CC[C@]3(C)[C@H](CC[C@@H]4[C@@]5(C)CC=C(c6ccc(C(=O)O)cc6)C(C)(C)[C@@H]5CC[C@]43C)[C@@H]12` [Example 23, 4-((1R,3aS,5aR,5bR,7aR,11aS,11bR,13aR,13bR)-3a-(3-(2-((2-hydroxyethyl)(methyl)amino)ethyl)ureido)-5a,5b,8,8,11a-pentamethyl-1-(prop-1-en-2-yl)-2,3,3a,4,5,5a,5b,6,7,7a,8,11,11a,11b,12,13,13a,13b-octadecahydro-1H-cyclopenta[a]chrysen-9-yl)benzoic acid] was tested. Which EC50 did it give?
Its EC50 is less than 100 nM.

How did the EC50 turn out when `C=C(C)[C@@H]1CC[C@]2(NC(=O)N(C)CCN(C)C)CC[C@]3(C)[C@H](CC[C@@H]4[C@@]5(C)CC=C(c6ccc(C(=O)O)cc6)C(C)(C)[C@@H]5CC[C@]43C)[C@@H]12` [Example 24, 4-((1R,3aS,5aR,5bR,7aR,11aS,11bR,13aR,13bR)-3a-(3-(2-(dimethylamino)ethyl)-3-methylureido)-5a,5b,8,8,11a-pentamethyl-1-(prop-1-en-2-yl)-2,3,3a,4,5,5a,5b,6,7,7a,8,11,11a,11b,12,13,13a,13b-octadecahydro-1H-cyclopenta[a]chrysen-9-yl)benzoic acid] was run?
Its EC50 is less than 100 nM.

How did the EC50 turn out when `C=C(C)[C@@H]1CC[C@]2(NC(=O)N(C)CCn3ccnc3)CC[C@]3(C)[C@H](CC[C@@H]4[C@@]5(C)CC=C(c6ccc(C(=O)O)cc6)C(C)(C)[C@@H]5CC[C@]43C)[C@@H]12` [Example 25, 4-((1R,3aS,5aR,5bR,7aR,11aS,11bR,13aR,13bR)-3a-(3-(2-(1H-imidazol-1-yl)ethyl)-3-methylureido)-5a,5b,8,8,11a-pentamethyl-1-(prop-1-en-2-yl)-2,3,3a,4,5,5a,5b,6,7,7a,8,11,11a,11b,12,13,13a,13b-octadecahydro-1H-cyclopenta[a]chrysen-9-yl)benzoic acid] was run?
Its EC50 is less than 100 nM.

Which EC50 does the source give for `C=C(C)[C@@H]1CC[C@]2(NC(=O)NCCNC(C)=O)CC[C@]3(C)[C@H](CC[C@@H]4[C@@]5(C)CC=C(c6ccc(C(=O)O)cc6)C(C)(C)[C@@H]5CC[C@]43C)[C@@H]12` [Example 26, 4-((1R,3aS,5aR,5bR,7aR,11aS,11bR,13aR,13bR)-3a-(3-(2-acetamidoethyl)ureido)-5a,5b,8,8,11a-pentamethyl-1-(prop-1-en-2-yl)-2,3,3a,4,5,5a,5b,6,7,7a,8,11,11a,11b,12,13,13a,13b-octadecahydro-1H-cyclopenta[a]chrysen-9-yl)benzoic acid] here?
The EC50 was less than 100 nM.

Which EC50 does the source give for `C=C(C)[C@@H]1CC[C@]2(NC(=O)NCCN3CCCCC3=O)CC[C@]3(C)[C@H](CC[C@@H]4[C@@]5(C)CC=C(c6ccc(C(=O)O)cc6)C(C)(C)[C@@H]5CC[C@]43C)[C@@H]12` [Example 27, 4-((1R,3aS,5aR,5bR,7aR,11aS,11bR,13aR,13bR)-5a,5b,8,8,11a-pentamethyl-3a-(3-(2-(2-oxopiperidin-1-yl)ethyl)ureido)-1-(prop-1-en-2-yl)-2,3,3a,4,5,5a,5b,6,7,7a,8,11,11a,11b,12,13,13a,13b-octadecahydro-1H-cyclopenta[a]chrysen-9-yl)benzoic acid] here?
The EC50 was less than 100 nM.

With `C=C(C)[C@@H]1CC[C@]2(NC(=O)N(CCCN(C)C)CCCN(C)C)CC[C@]3(C)[C@H](CC[C@@H]4[C@@]5(C)CC=C(c6ccc(C(=O)O)cc6)C(C)(C)[C@@H]5CC[C@]43C)[C@@H]12` [Example 30, 4-((1R,3aS,5aR,5bR,7aR,11aS,11bR,13aR,13bR)-3a-(3,3-bis(3-(dimethylamino)propyl)ureido)-5a,5b,8,8,11a-pentamethyl-1-(prop-1-en-2-yl)-2,3,3a,4,5,5a,5b,6,7,7a,8,11,11a,11b,12,13,13a,13b-octadecahydro-1H-cyclopenta[a]chrysen-9-yl)benzoic acid] as the compound, how does the EC50 read?
Its EC50 is less than 100 nM.

Which EC50 does the source give for `C=C(C)[C@@H]1CC[C@]2(NC(=O)NCC(=O)N(C)C)CC[C@]3(C)[C@H](CC[C@@H]4[C@@]5(C)CC=C(c6ccc(C(=O)O)cc6)C(C)(C)[C@@H]5CC[C@]43C)[C@@H]12` [Example 31, 4-((1R,3aS,5aR,5bR,7aR,11aS,11bR,13aR,13bR)-3a-(3-(2-(dimethylamino)-2-oxoethyl)ureido)-5a,5b,8,8,11a-pentamethyl-1-(prop-1-en-2-yl)-2,3,3a,4,5,5a,5b,6,7,7a,8,11,11a,11b,12,13,13a,13b-octadecahydro-1H-cyclopenta[a]chrysen-9-yl)benzoic acid] here?
The EC50 was less than 100 nM.

With `C=C(C)[C@@H]1CC[C@]2(NC(=O)NCCC(=O)O)CC[C@]3(C)[C@H](CC[C@@H]4[C@@]5(C)CC=C(c6ccc(C(=O)O)cc6)C(C)(C)[C@@H]5CC[C@]43C)[C@@H]12` [Example 33, 4-((1R,3aS,5aR,5bR,7aR,11aS,11bR,13aR,13bR)-3a-(3-(2-carboxyethyl)ureido)-5a,5b,8,8,11a-pentamethyl-1-(prop-1-en-2-yl)-2,3,3a,4,5,5a,5b,6,7,7a,8,11,11a,11b,12,13,13a,13b-octadecahydro-1H-cyclopenta[a]chrysen-9-yl)benzoic acid] as the compound, how does the EC50 read?
The EC50 was less than 100 nM.

Same assay, conditions: Renilla, NL43, luciferase activity in cells infected for 4-5 days with NLRluc recombinants, serial dilutions of inhibitor; numeric values; read-out: EC50

Which EC50 does the source give for `C=C(C)[C@@H]1CC[C@]2(NC(=O)NCCN3CCCC3=O)CC[C@]3(C)[C@H](CC[C@@H]4[C@@]5(C)CC=C(c6ccc(C(=O)O)cc6)C(C)(C)[C@@H]5CC[C@]43C)[C@@H]12` [Example 28, 4-((1R,3aS,5aR,5bR,7aR,11aS,11bR,13aR,13bR)-5a,5b,8,8,11a-pentamethyl-3a-(3-(2-(2-oxopyrrolidin-1-yl)ethyl)ureido)-1-(prop-1-en-2-yl)-2,3,3a,4,5,5a,5b,6,7,7a,8,11,11a,11b,12,13,13a,13b-octadecahydro-1H-cyclopenta[a]chrysen-9-yl)benzoic acid] here?
Its EC50 is 4 nM.

For `C=C(C)[C@@H]1CC[C@]2(NC(=O)NCCCN3CCCC3=O)CC[C@]3(C)[C@H](CC[C@@H]4[C@@]5(C)CC=C(c6ccc(C(=O)O)cc6)C(C)(C)[C@@H]5CC[C@]43C)[C@@H]12` [Example 29, 4-((1R,3aS,5aR,5bR,7aR,11aS,11bR,13aR,13bR)-5a,5b,8,8,11a-pentamethyl-3a-(3-(3-(2-oxopyrrolidin-1-yl)propyl)ureido)-1-(prop-1-en-2-yl)-2,3,3a,4,5,5a,5b,6,7,7a,8,11,11a,11b,12,13,13a,13b-octadecahydro-1H-cyclopenta[a]chrysen-9-yl)benzoic acid], which EC50 is on record?
Its EC50 is 10 nM.

With `C=C(C)[C@@H]1CC[C@]2(NC(=O)N(C)C)CC[C@]3(C)[C@H](CC[C@@H]4[C@@]5(C)CC=C(c6ccc(C(=O)O)cc6)C(C)(C)[C@@H]5CC[C@]43C)[C@@H]12` [Example 32, 4-((1R,3aS,5aR,5bR,7aR,11aS,11bR,13aR,13bR)-3a-(3,3-dimethylureido)-5a,5b,8,8,11a-pentamethyl-1-(prop-1-en-2-yl)-2,3,3a,4,5,5a,5b,6,7,7a,8,11,11a,11b,12,13,13a,13b-octadecahydro-1H-cyclopenta[a]chrysen-9-yl)benzoic acid] as the compound, how does the EC50 read?
The EC50 was 10 nM.

With `C=C(C)[C@@H]1CC[C@]2(NC(=O)N3CCCN(C)CC3)CC[C@]3(C)[C@H](CC[C@@H]4[C@@]5(C)CC=C(c6ccc(C(=O)O)cc6)C(C)(C)[C@@H]5CC[C@]43C)[C@@H]12` [Example 34, 4-((1R,3aS,5aR,5bR,7aR,11aS,11bR,13aR,13bR)-5a,5b,8,8,11a-pentamethyl-3a-(4-methyl-1,4-diazepane-1-carboxamido)-1-(prop-1-en-2-yl)-2,3,3a,4,5,5a,5b,6,7,7a,8,11,11a,11b,12,13,13a,13b-octadecahydro-1H-cyclopenta[a]chrysen-9-yl)benzoic acid] as the compound, how does the EC50 read?
Its EC50 is 2 nM.
